According to patent US4170656A, “Compositions containing cis-2-benzoyl-3-hydroxy-crotononitrile used to treat inflammation and joint deterioration” (priority 1978, dated 1979):

Experiments:
[1] = Ultraviolet induced erythema in guinea pigs; type: in vivo, Albino guinea pigs; conditions: maximum 3.0
Description: Albino guinea pigs were depilitated on their flanks, the evening before testing, with a standard mixture of barium sulfide and gum acacia. On the morning of the test, groups of four guinea pigs were dosed by gavage one hour prior (-1 hour) to ultraviolet exposure. At 0 hour they were restrained in a plastic container which allows exposure of 3 circular spots. They were then exposed to ultraviolet irradiation from a "Hanovia" Kromayer lamp, model 10, for 60 seconds. At one and four hours, the degree of erythema for each of the three sites was assessed according to the following scoring system: 0= no erythema, 0.5=incomplete circle or faint erythema, and 1.0=complete circle of distinct erythema. Thus, the maximum score for each animal was 3.0.

[2] = Adjuvant induced arthritis in rats (Freund's adjuvant); type: in vivo, Royal Hart, Wistar strain rats; conditions: for Dead/Treated At 21 Days: days 0-13
Description: Groups of three Royal Hart, Wistar strain rats weighing 200±10 grams each were injected intradermally in the right hind paw with Freund's adjuvant (dried human tubercle bacilli in a mineral oil vehicle) at a dose of 2 mg./kg. of body weight. Test compound was administered orally in a 1.5% starch vehicle at various doses once daily on days 0 through 13 post challenge. Control rats were treated in a similar manner, but given only starch vehicle. On the 14th and 21st day post challenge the diameter of the injected paw (primary lesion) was measured by micrometer caliper. The volume of inflamed paws were estimated from these measurements and the results are expressed as percent inhibition of swelling as compared to controls. At the same time, the other inflamed sites, such as ears, paws and tail (seconday lesions) were observed and each rat was graded as to degree of inflammation and swelling present. The grading is based on a scale of 0 to 24, where 0 represents a complete absence of induced arthritic nodules and 24 represents the maximum degree of inflammation. The mean grade for each treated group is calculated and the effects of each compound are expressed as percent inhibition of the control grade. Table I records the results of tests conducted with a typical compound of the present invention and known anti-inflammatory agents.

[3] = Carrageenin induced paw edema in rats (acute anti-inflammatory activity); type: in vivo, Royal Hart, Wistar strain rats; conditions: 250 mg./kg. by gavage; 5 hours after drug (4 hours after carrageenin); ratio greater than 1.41 is active
Description: In determining the acute anti-inflammatory activity of the cis-2-benzoyl-3-hydroxy-2-alkenonitriles of the present invention, Royal Hart, Wistar strain rats, ranging in weight from 80 to 90 grams were used. The rats were fasted overnight prior to dosing but had free access to water. The test compounds were administered in aqueous suspension, by gavage, in a volume of 1.7 ml. per 50 grams of rat [corresponds to hydration volume used by Winter, et al., Proc. Soc. […] The phlogistic agent used was carrageenin prepared as a sterile 1% suspension in 0.9% aqueous sodium chloride for routine testing. A volume of 0.05 ml. was injected through a 26 gauge needle into the plantar tissue of the right hind paw. Measurements were made 5 hours after drug administration (4 hours after carrageenin challenge). Volumes of both the normal and carrageenin inflammed feet were determined. The difference between the two measurements is considered to be the increased edema due to the carrageenin administration.

[4] = S. Wong et al. (1973); G. R. Bobalick et al. (1974); cited from earlier work

In the case of `COc1ccc2c(c1)c(CC(=O)O)c(C)n2C(=O)c1ccc(Cl)cc1` [Indomethacin], the “Erythema Score (avg.)” value ([1]; oral 3.9 mg./kg., 1 hour) is reported as 1.2, the “Erythema Score (avg.)” value ([1]; oral 3.9 mg./kg., 4 hours) is reported as 2.9 and the “Erythema Score (avg.)” value ([1]; oral 7.8 mg./kg., 1 hour) is reported as 0.6. The “Erythema Score (avg.)” value ([1]; oral 7.8 mg./kg., 4 hours) was 2.3, the “Erythema Score (avg.)” value ([1]; oral 15.6 mg./kg., 1 hour) was 0 and the “Erythema Score (avg.)” value ([1]; oral 15.6 mg./kg., 4 hours) was 2.0. For the same molecule, the “Erythema Score (avg.)” value ([1]; oral 31.3 mg./kg., 1 hour) was 0.1, the “Erythema Score (avg.)” value ([1]; oral 31.3 mg./kg., 4 hours) was 1.9 and the “Erythema Score (avg.)” value ([1]; oral 62.5 mg./kg., 1 hour) was 0. For the same molecule, the “Erythema Score (avg.)” value ([1]; oral 62.5 mg./kg., 4 hours) was 1.3, the “Erythema Score (avg.)” value ([1]; oral 125 mg./kg., 1 hour) was 0 and the “Erythema Score (avg.)” value ([1]; oral 125 mg./kg., 4 hours) was 1.3. The “Erythema Score (avg.)” value ([1]; oral 250 mg./kg., 1 hour) was 0, the “Erythema Score (avg.)” value ([1]; oral 250 mg./kg., 4 hours) was 1.0 and the “% Inhibition of Control Grade (secondary lesion)” value (“% Inhibition of Control Grade” for short) ([2]; oral 0.25 mg./kg., Day 14) was 22%. For the same molecule, the “% Inhibition of Swelling (primary lesion)” value (“% Inhibition of Swelling” below) ([2]; oral 0.25 mg./kg., Day 14) was 30%, the “Mean Weight Gain” value ([2]; oral 0.25 mg./kg., Day 14) was 51 grams and the “% Inhibition of Control Grade” value ([2]; oral 0.25 mg./kg., Day 21) was 4%. For the same molecule, the “% Inhibition of Swelling” value ([2]; oral 0.25 mg./kg., Day 21) was 4%, the “Mean Weight Gain” value ([2]; oral 0.25 mg./kg., Day 21) was 57 grams and the “Dead/Treated At 21 Days” value ([2]; oral 0.25 mg./kg.) was 0/9. The “% Inhibition of Control Grade” value ([2]; oral 0.5 mg./kg., Day 14) was 25%, the “% Inhibition of Swelling” value ([2]; oral 0.5 mg./kg., Day 14) was 40% and the “Mean Weight Gain” value ([2]; oral 0.5 mg./kg., Day 14) was 53 grams. For the same molecule, the “% Inhibition of Control Grade” value ([2]; oral 0.5 mg./kg., Day 21) was 17%, the “% Inhibition of Swelling” value ([2]; oral 0.5 mg./kg., Day 21) was 20% and the “Mean Weight Gain” value ([2]; oral 0.5 mg./kg., Day 21) was 51 grams. The “Dead/Treated At 21 Days” value ([2]; oral 0.5 mg./kg.) was 5/54, the “% Inhibition of Control Grade” value ([2]; oral 1 mg./kg., Day 14) was 34% and the “% Inhibition of Swelling” value ([2]; oral 1 mg./kg., Day 14) was 46%. For the same molecule, the “Mean Weight Gain” value ([2]; oral 1 mg./kg., Day 14) was 63 grams, the “% Inhibition of Control Grade” value ([2]; oral 1 mg./kg., Day 21) was 20% and the “% Inhibition of Swelling” value ([2]; oral 1 mg./kg., Day 21) was 19%. For the same molecule, the “Mean Weight Gain” value ([2]; oral 1 mg./kg., Day 21) was 65 grams, the “Dead/Treated At 21 Days” value ([2]; oral 1 mg./kg.) was 9/54 and the “% Inhibition of Control Grade” value ([2]; oral 2 mg./kg., Day 14) was 38%. The “% Inhibition of Swelling” value ([2]; oral 2 mg./kg., Day 14) was 51%, the “Mean Weight Gain” value ([2]; oral 2 mg./kg., Day 14) was 68 grams and the “% Inhibition of Control Grade” value ([2]; oral 2 mg./kg., Day 21) was 25%. The “% Inhibition of Swelling” value ([2]; oral 2 mg./kg., Day 21) was 24%, the “Mean Weight Gain” value ([2]; oral 2 mg./kg., Day 21) was 68 grams and the “Dead/Treated At 21 Days” value ([2]; oral 2 mg./kg.) was 8/57. The “C/T Edema Ratio” value [3] was 2.9, the arthritic paw swelling [4] was “inhibit arthritic paw swelling” and the “joint and bone deterioration” value [4] was “prevent joint and bone deterioration”.
